In ChEMBL document CHEMBL5291721, “A preclinical secondary pharmacology resource illuminates target-adverse drug reaction associations of marketed drugs” (Nat Commun, 2023):

Experiments:
[1] = molecular target: Acetylcholinesterase (Homo sapiens, UniProt P22303); type: functional
[2] = molecular target: T1, Alpha-1A adrenergic receptor (Homo sapiens, UniProt P35348); type: functional, cell-based
T1 sequence (P35348 whole entry): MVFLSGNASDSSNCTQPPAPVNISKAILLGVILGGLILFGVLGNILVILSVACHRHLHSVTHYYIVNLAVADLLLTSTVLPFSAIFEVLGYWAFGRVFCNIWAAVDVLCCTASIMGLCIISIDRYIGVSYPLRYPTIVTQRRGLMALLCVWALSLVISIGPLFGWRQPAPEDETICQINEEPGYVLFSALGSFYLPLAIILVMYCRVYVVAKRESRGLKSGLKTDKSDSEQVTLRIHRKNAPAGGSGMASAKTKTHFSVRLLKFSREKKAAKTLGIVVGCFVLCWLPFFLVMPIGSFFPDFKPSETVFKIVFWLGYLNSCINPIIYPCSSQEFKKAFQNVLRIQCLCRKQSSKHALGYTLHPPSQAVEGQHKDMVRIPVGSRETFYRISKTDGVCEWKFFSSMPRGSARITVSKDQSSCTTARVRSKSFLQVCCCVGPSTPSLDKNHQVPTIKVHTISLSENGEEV

[3] = molecular target: T2, Alpha-2A adrenergic receptor (Homo sapiens, UniProt P08913)
T2 sequence (P08913 whole entry): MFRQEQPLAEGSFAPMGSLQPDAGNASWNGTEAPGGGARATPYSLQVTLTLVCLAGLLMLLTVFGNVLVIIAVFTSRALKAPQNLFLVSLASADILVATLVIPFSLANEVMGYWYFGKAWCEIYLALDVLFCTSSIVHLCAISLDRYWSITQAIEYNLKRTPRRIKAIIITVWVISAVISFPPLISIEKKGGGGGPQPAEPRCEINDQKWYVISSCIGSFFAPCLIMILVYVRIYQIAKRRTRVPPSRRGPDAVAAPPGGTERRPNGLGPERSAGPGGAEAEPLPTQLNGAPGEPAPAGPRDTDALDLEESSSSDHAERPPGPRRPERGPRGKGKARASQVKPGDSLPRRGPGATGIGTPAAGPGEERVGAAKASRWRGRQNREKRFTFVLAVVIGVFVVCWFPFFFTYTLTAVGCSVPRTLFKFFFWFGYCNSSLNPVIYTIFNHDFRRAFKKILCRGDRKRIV

[4] = molecular target: D(1A) dopamine receptor (Homo sapiens, UniProt P21728)
D(1A) dopamine receptor, sequence (P21728 whole entry): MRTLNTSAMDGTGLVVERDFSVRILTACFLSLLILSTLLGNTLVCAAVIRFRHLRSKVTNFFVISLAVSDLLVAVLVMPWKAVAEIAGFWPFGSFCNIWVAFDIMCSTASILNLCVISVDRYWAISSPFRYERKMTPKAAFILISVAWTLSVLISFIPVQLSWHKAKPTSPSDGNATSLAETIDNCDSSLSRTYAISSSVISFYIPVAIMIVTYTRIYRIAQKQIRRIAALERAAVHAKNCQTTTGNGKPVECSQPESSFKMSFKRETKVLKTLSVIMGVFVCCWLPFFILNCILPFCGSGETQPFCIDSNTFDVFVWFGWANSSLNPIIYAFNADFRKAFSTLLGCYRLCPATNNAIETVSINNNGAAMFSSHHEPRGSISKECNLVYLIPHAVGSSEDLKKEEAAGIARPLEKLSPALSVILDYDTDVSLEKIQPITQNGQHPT

[5] = molecular target: D(3) dopamine receptor (Homo sapiens, UniProt P35462)
D(3) dopamine receptor, sequence (P35462 whole entry): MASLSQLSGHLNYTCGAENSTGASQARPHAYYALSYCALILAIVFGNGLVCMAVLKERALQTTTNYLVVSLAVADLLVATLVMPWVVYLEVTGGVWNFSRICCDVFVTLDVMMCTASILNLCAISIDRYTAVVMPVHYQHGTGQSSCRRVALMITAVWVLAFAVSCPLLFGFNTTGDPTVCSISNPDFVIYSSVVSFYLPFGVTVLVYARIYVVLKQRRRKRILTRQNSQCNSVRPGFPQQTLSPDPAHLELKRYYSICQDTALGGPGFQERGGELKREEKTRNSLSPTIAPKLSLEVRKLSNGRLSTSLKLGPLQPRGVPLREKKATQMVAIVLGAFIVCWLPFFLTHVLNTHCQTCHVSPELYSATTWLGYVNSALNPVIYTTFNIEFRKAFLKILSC

[6] = molecular target: Prothrombin (Homo sapiens, UniProt P00734); type: functional
[7] = molecular target: Voltage-gated inwardly rectifying potassium channel KCNH2 (Homo sapiens, UniProt Q12809); type: functional; conditions: read-out: AC50
Voltage-gated inwardly rectifying potassium channel KCNH2, sequence (Q12809 whole entry): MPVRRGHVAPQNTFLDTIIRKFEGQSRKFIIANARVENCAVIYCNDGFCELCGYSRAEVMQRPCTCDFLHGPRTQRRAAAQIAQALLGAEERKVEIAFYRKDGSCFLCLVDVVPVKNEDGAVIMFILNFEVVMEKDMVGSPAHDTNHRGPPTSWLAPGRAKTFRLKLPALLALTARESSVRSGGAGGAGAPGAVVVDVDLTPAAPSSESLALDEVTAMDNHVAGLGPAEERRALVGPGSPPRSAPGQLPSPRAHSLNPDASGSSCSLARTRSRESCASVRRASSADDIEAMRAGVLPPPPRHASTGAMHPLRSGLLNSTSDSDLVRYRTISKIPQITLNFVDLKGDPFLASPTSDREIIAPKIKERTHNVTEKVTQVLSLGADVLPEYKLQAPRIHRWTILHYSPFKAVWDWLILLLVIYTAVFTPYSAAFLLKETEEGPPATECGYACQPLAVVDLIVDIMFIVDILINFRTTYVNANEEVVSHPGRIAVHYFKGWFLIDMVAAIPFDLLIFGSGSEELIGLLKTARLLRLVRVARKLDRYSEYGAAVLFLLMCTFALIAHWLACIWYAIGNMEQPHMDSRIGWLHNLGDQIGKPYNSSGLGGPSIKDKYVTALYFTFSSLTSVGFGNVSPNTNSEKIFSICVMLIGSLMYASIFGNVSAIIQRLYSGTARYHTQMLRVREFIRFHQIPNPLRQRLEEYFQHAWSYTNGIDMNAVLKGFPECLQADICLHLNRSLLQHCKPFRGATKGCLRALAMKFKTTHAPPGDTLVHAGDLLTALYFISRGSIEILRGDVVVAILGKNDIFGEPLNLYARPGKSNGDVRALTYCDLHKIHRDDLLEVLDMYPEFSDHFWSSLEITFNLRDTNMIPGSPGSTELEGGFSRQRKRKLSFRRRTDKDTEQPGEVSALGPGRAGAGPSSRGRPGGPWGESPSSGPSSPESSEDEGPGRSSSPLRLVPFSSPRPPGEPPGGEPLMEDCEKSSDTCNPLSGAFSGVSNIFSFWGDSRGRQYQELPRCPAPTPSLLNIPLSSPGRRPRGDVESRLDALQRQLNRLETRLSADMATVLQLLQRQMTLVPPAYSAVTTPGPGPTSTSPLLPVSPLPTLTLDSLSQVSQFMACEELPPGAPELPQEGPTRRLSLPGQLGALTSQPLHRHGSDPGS

[8] = molecular target: cGMP-inhibited 3',5'-cyclic phosphodiesterase 3A (Homo sapiens, UniProt Q14432); type: functional
cGMP-inhibited 3',5'-cyclic phosphodiesterase 3A, sequence (Q14432 whole entry): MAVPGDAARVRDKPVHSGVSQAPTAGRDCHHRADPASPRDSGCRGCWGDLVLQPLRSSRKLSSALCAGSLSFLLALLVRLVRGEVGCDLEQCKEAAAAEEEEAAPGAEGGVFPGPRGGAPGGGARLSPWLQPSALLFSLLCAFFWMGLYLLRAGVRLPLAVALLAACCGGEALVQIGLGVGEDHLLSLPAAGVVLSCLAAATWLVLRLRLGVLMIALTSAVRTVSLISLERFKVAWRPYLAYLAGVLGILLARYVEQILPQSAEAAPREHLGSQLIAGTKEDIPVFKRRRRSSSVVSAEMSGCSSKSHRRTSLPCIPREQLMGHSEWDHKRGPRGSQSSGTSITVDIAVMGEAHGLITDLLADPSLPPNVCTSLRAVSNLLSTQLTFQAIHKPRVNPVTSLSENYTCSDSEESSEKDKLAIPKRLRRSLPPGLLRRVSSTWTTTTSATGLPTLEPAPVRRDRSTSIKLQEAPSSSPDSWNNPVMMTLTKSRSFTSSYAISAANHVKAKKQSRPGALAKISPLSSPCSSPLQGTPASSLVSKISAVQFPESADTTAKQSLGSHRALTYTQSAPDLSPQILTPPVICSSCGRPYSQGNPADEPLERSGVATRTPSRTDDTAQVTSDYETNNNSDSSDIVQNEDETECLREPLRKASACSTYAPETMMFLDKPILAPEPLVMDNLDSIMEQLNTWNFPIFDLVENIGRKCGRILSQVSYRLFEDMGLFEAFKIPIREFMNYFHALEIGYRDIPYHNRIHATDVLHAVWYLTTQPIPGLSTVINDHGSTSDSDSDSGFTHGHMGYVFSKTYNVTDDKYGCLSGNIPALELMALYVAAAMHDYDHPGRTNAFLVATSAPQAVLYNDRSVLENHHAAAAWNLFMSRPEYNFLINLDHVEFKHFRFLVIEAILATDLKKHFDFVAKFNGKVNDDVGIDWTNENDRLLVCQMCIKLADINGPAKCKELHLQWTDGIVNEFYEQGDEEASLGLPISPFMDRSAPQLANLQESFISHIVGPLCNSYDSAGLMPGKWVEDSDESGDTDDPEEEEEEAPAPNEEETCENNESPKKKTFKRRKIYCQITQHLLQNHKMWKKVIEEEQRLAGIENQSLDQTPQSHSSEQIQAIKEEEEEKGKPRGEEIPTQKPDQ

[9] = molecular target: T3, Progesterone receptor (Homo sapiens, UniProt P06401)
T3 sequence (P06401 whole entry): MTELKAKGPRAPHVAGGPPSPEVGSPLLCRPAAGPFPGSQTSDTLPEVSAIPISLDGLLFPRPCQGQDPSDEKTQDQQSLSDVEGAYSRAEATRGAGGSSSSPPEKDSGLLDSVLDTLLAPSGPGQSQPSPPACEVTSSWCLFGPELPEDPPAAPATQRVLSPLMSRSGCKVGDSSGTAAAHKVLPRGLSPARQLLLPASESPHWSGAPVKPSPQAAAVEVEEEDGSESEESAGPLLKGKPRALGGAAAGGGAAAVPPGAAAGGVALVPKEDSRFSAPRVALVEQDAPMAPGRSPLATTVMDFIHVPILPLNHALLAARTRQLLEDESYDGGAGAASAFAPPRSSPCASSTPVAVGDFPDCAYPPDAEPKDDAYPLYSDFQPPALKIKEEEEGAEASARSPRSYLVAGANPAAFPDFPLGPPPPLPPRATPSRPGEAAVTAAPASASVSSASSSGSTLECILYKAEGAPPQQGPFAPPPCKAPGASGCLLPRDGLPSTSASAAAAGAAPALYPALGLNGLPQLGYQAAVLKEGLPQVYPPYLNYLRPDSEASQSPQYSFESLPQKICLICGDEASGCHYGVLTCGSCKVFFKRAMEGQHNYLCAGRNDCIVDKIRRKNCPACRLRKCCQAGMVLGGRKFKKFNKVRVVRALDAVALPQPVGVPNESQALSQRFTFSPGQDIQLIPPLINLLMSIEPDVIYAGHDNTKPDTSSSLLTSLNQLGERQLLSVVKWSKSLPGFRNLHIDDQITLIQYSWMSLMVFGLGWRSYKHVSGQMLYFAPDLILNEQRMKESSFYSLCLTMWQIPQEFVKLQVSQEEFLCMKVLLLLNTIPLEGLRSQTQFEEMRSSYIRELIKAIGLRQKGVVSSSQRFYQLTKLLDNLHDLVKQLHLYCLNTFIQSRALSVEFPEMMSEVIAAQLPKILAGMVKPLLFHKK

[10] = molecular target: Sodium-dependent dopamine transporter (Homo sapiens, UniProt Q01959)
Sodium-dependent dopamine transporter, sequence (Q01959 whole entry): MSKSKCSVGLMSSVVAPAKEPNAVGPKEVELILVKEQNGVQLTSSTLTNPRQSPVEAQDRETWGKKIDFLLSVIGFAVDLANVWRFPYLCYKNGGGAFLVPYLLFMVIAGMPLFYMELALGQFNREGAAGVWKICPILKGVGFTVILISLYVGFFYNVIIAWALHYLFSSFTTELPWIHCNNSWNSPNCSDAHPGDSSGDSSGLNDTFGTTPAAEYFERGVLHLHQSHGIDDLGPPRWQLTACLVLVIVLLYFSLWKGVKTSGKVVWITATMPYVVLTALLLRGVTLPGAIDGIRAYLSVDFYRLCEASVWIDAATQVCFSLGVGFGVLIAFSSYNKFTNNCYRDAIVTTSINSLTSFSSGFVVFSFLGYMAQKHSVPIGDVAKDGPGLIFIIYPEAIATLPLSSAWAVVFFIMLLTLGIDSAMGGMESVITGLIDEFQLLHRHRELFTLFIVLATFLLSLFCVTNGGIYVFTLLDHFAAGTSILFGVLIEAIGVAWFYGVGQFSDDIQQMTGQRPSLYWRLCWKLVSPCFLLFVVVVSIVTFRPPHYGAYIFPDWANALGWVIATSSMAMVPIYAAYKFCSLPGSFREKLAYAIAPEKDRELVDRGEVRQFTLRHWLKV

[11] = molecular target: T4, Thromboxane A2 receptor (Homo sapiens, UniProt P21731); type: functional, cell-based
T4 sequence (P21731 whole entry): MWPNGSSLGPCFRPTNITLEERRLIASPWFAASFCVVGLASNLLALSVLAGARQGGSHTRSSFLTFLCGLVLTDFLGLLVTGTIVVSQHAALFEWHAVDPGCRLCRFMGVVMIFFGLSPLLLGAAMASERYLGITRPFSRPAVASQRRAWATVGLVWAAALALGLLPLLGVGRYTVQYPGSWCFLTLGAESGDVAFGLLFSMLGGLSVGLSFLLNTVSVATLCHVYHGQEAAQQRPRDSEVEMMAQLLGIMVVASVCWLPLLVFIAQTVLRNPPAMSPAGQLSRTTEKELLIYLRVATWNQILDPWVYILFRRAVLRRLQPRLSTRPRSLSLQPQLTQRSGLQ

[12] = molecular target: T4, Thromboxane A2 receptor; type: functional, cell-based; remark: listed apart in the source
Also: assay procedure not described here.

Acetylcholinesterase, sequence (P22303 whole entry): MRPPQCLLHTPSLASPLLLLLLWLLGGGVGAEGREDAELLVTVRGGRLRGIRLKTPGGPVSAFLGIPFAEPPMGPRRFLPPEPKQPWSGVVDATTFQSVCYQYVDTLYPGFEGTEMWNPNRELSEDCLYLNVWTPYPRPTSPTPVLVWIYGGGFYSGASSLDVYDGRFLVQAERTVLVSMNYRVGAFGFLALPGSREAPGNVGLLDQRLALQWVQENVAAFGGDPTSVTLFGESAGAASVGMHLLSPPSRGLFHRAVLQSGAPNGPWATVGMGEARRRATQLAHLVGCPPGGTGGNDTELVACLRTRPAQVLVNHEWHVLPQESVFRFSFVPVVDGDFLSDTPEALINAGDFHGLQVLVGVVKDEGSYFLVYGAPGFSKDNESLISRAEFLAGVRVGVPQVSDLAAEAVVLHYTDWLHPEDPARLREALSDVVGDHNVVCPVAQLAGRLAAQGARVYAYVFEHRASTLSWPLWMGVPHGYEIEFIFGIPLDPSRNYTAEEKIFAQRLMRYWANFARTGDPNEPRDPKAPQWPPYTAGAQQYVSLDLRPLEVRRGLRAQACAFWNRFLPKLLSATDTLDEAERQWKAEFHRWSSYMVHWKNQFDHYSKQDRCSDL

Row | Compound | AC50 [1] [µM] | AC50 [2] [µM] | AC50 [3] [µM] | AC50 [4] [µM] | AC50 [5] [µM] | AC50 [6] [µM] | AC50 [7] [µM] | AC50 [8] [µM] | AC50 [9] [µM] | AC50 [10] [µM] | AC50 [11] [µM] | AC50 [12] [µM]
1 | CCCC(=O)O[C@H]1[C@H](C)O[C@@H](O[C@H]2[C@H](N(C)C)[C@@H](O)[C@H](O[C@H]3[C@@H](CC=O)C[C@@H](C)[C@@H](O)/C=C/C=C/C[C@@H](C)OC(=O)C[C@@H](O)[C@@H]3OC)O[C@@H]2C)C[C@@]1(C)OC(=O)CC [ROKITAMYCIN] | > 30 | > 30 | > 30 | > 30 | > 30 | > 30 | > 30 | > 10 | > 30 | > 30 | > 30 | > 30
2 | CCCCCCCCCCCCCCCCCC(=O)NCCCC[C@H](NC(=O)CC[C@@H](NC(=O)[C@H](C)NC(=O)[C@@H](C)O[C@H]1[C@H](O)[C@@H](CO)OC(O)[C@@H]1NC(C)=O)C(N)=O)C(=O)O (some centres undefined) [ROMURTIDE] | > 30 | > 30 | > 30 | > 30 | > 30 | > 30 | 26 | > 30 | 2.94 | > 30 | 15.9 | > 3
3 | O=C(Oc1ccccc1C(=O)O)c1ccccc1O [SALSALATE] | > 30 | > 30 | > 30 | > 30 | > 30 | > 30 | > 30 | > 30 | > 30 | > 30 | > 30 | > 30
4 | COc1cc([C@@H]2c3cc4c(cc3[C@@H](O[C@@H]3O[C@@H]5CO[C@@H](c6cccs6)O[C@H]5[C@H](O)[C@H]3O)[C@H]3COC(=O)[C@H]23)OCO4)cc(OC)c1O [TENIPOSIDE] | > 30 | > 30 | > 30 | > 30 | > 30 | > 30 | > 30 | > 3 | > 30 | > 30 | > 30 | > 30
5 | c1ccc2[nH]c(-c3cscn3)nc2c1 [THIABENDAZOLE] | > 30 | > 30 | > 30 | > 30 | > 30 | > 30 | > 30 | > 30 | > 30 | > 30 | > 30 | > 30
6 | CCSc1ccc2c(c1)N(CCCN1CCN(C)CC1)c1ccccc1S2 [THIETHYLPERAZINE] | > 30 | 24.7 | 0.211 | 0.0079 | 0.0031 | > 30 | 1.2 | > 30 | 24.4 | 3.87 | > 30 | 3.98
7 | C[C@@H]1C[C@H]2[C@@H]3CCC4=CC(=O)C=C[C@]4(C)C3=CC[C@]2(C)[C@H]1C(=O)CN1CCN(c2cc(N3CCCC3)nc(N3CCCC3)n2)CC1 [TIRILAZAD] | > 30 | > 30 | 17.3 | 7.07 | 9.69 | > 30 | 1.9 | > 30 | 6.37 | > 30 | > 30 | > 30
